{"source": "patent US10265419B2", "about": "“Intraoperative determination of nerve location” (Novadaq Technologies ULC, priority 2005, dated 2019)", "key": {"cavernous nerves": {"tested_on": "cavernous nerves", "assay": "NIRF imaging of cavernous nerves after intracrural ICG injection in rats", "type": "in vivo", "source_text": "The area was examined for retrograde axonal transport at different time points, using a NIRF intraoperative imaging system (SPY®, Novadaq Technologies Inc., Mississauga, Ontario, Canada) that illuminates tissues with a 805 nm laser and captures images with a camera sensitive to infrared fluorescence. Near infrared microscopy and conventional histology were used to confirm the macroscopically identified fluorescent structures. […] (These were specific time points at which examinations were made. […] The fluorescent nerves were then excised."}, "[1]": {"details": "cited from earlier work"}}}
{"smiles": "CC1(C)C(/C=C/C=C/C=C/C=C2\\N(CCCCS(=O)(=O)O)c3ccc4ccccc4c3C2(C)C)=[N+](CCCCS(=O)(=O)[O-])c2ccc3ccccc3c21", "note": "[ICG, indocyanine green]", "values": [{"measurement": "time post-injection of highest fluorescence intensity", "setting": "cavernous nerves; NIRF imaging", "result": "18 and at 24"}, {"measurement": "fluorescence of the cavernous nerves at longer post-injection periods", "setting": "cavernous nerves; e.g. 30 days post-injection", "result": "not detectable"}, {"measurement": "metabolism in the body", "setting": "[1]; after intravenous injection", "result": "not metabolized in the body"}, {"measurement": "route of excretion", "setting": "[1]; after intravenous injection", "result": "excreted exclusively by the liver"}, {"measurement": "reabsorption from the intestine / enterohepatic recirculation", "setting": "[1]; in vivo", "result": "not reabsorbed from the intestine and does not undergo enterohepatic recirculation"}]}
